Data taken from patent publication US20230105212A1, “BIPHENYL DERIVATIVE INHIBITOR, PREPARATION METHOD THEREFOR AND USE THEREOF” (SHANGHAI HANSOH BIOMEDICAL CO., LTD., priority 2020, published 2023).
Read-outs that look alike come from different tables or passages of the source.

What was measured:
[1] = Pharmacokinetics test in Balb/C mice; type: in vivo; settings: male, mouse, po, p.o. 5 mg/kg, plasma; for MRT inf: read-out: Average residence time MRT0−∞; for AUC(0-t): read-out: Curve area AUC0−t; for Cmax: read-out: Drug concentration in plasma Cmax; for half-life: read-out: Half life t1/2 (converted); for Tmax: read-out: Peak time tmax
Method: Test Embodiment 6. Pharmacokinetics Test in Balb/C Mice
Taking Balb/C mice as the test animals, the pharmacokinetic behavior in the plasma of mice of the following compound embodiments was studied when orally administered at a dose of 5 mg/kg.
Balb/C Mouse 6/embodiment, male, Shanghai Jisijie Laboratory Animal Co., Ltd., animal production license number (SCXK (Shanghai) 2013-0006 No. 311620400001794).
0.5% HPMC (1% Tween 80), dissolved by sonication, to prepare a clear solution or a homogeneous suspension.
Balb/C mice, male; p.o. after overnight fasting, respectively, at a dose of 5 mg/kg, administered in a volume of 10 mL/kg.
Before and after administration of mice, at 0, 0.5, 1, 2, 4, 6, 8 and 24 hours, 0.1 mL of blood was collected from the orbit, placed in an EDTA-K2 test tube, and centrifuged at 6000 rpm at 4° C. for 6 min to separate the plasma, stored at −80° C.
1) 40 μL of plasma samples were added to 160 μL of acetonitrile for precipitation, mixed and centrifuged at 3500×g for 5 to 20 minutes.
2) 100 μL of the supernatant solution after treatment was taken for LC/MS/MS to analyze the concentration of the compounds to be tested.
2.6 Liquid Phase Analysis • Liquid phase condition: Shimadzu LC-20AD pump • MS conditions: AB Sciex API 4000 Mass Spectrometer • Chromatographic column: phenomenex Gemiu 5 μm C18 50×4.6 mm • Mobile phase: A solution was aqueous 0.1% formic acid solution, B solution was acetonitrile • Flow rate: 0.8 mL/min • Elution time: 0 to 4.0 minutes, the eluent was as follows:
The main parameters of pharmacokinetics were calculated with WinNonlin 8.2, and the results of the mice pharmacokinetic experiments were shown in the following table: […]

human PD-1/PD-L1 binding = biological target: T1, human PD-1/PD-L1 binding (Homo sapiens, UniProt Q9NZQ7); test: Inhibition of human PD-1/PD-L1 binding (TR-FRET/HTRF)
T1 construct: PD-L1-His protein (19 to 238 amino acids) (Abcam #ab167713); purchased Abcam (PD-L1-His); R&D (PD-1-Fc) ab167713; 1086-PD
T1 sequence (Q9NZQ7 19-238): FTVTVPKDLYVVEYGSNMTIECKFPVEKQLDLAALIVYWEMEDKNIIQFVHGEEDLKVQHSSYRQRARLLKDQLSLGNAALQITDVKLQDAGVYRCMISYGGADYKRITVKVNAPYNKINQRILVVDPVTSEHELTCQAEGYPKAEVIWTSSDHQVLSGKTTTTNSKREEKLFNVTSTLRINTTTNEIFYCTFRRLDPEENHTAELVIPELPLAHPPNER
Procedure, shortened: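 PD-L1-His (aa 19–238, diluted to 10 nM) and PD-1-Fc (aa 25–167, diluted to 20 nM) incubated with compounds (10 μM or 1 μM top, 3-fold, 11 doses) 60 min at room temperature, then anti-6HIS Eu cryptate/anti-human IgG-XL665 added for 3 h RT or overnight 4 °C. HTRF 665/620 nm ratio gave inhibition and IC50.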

[2] = TR-FRET, PD-L1-His and PD-1-Fc, read-out: PD-1/PD-L1 binding IC50

Row | Structure (SMILES) | AUC(0-t) [1] [ng·h/mL] | Cmax [1] [ng/mL] | Tmax [1] [h] | IC50 (human PD-1/PD-L1 binding; [2]) [nM] | MRT inf [1] [h] | half-life [1] [h] | IC50 (human PD-1/PD-L1 binding) [nM]
1 | COc1nc(-c2cccc(-c3cccc(NC(=O)c4nc5c(n4C)CCN(C)C5)c3Cl)c2Cl)ccc1CN1CC(F)C1 [Embodiment 120, N-(2,2′-Dichloro-3′-(5-((3-fluoroazetidin-1-yl)methyl)-6-methoxypyridin-2-yl)-[1,1′-biphenyl]-3-yl)-1,5-dimethyl-4,5,6,7-tetrahydro-1H-imidazo[4,5-c]pyridine-2-carboxamide] | 500 | 34 | 2 | 7.4 | 17 | 12 | –
2 | COc1nc(-c2cccc(-c3cccc(NC(=O)c4nc5c(n4C)CCN(C)C5)c3Cl)c2Cl)ccc1CN1CC2(CCC(=O)N2)C1 [Embodiment 126, N-(2,2′-Dichloro-3′-(6-methoxy-5-((6-carbonyl-2,5-diazaspiro[3.4]octan-2-yl)methyl)pyridin-2-yl)-[1,1′-biphenyl]-3-yl)-1,5-dimethyl-4,5,6,7-tetrahydro-1H-imidazo[4,5-c]pyridine-2-carboxamide] | 677 | 54 | 2 | 2 | 12.3 | 8.4 | –
3 | CCC(=O)N1CC2(CN(Cc3ccc(-c4cccc(-c5cccc(NC(=O)c6nc7c(n6C)CCN(C)C7)c5Cl)c4Cl)nc3OC)C2)C1 [Embodiment 188, N-(2,2′-Dichloro-3′-(6-methoxy-5-((6-propionyl-2,6-diazaspiro[3.3]heptan-2-yl)methyl)pyridin-2-yl)-[1,1′-biphenyl]-3-yl)-1,5-dimethyl-4,5,6,7-tetrahydro-1H-imidazo[4,5-c]pyridine-2-carboxamide] | – | – | – | – | – | – | 6.3
4 | COc1nc(-c2cccc(-c3cccc(NC(=O)c4nc5c(n4C)CCN(C)C5)c3Cl)c2Cl)ccc1CN1CC(O)(CO)C1 [Embodiment 173, N-(2,2′-Dichloro-3′-(5-((3-hydroxy-3-(hydroxymethyl)azetidin-1-yl)methyl)-6-methoxypyridin-2-yl)-[1,1-biphenyl]-3-yl)-1,5-dimethyl-4,5,6,7-tetrahydro-1H-imidazo[4,5-c]pyridine-2-carboxamide] | – | – | – | 3 | – | – | –
5 | CNC(=O)CNCc1cnc(C(=O)Nc2cccc(-c3cccc(NC(=O)c4nc5c(n4C)CCN(C)C5)c3Cl)c2C)cc1OC [Embodiment 95, N-(2-Chloro-3′-(4-methoxy-5-(((2-(methylamino)-2-carbonylethyl)amino)methyl)picolinamido)-2′-methyl-[1,1′-biphenyl]-3-yl)-1,5-dimethyl-4,5,6,7-tetrahydro-1H-imidazo[4,5-c]pyridine-2-carboxamide] | – | – | – | 2.4 | – | – | –
6 | COc1nc(-c2cccc(-c3cccc(NC(=O)c4nc5c(n4C)CCN(C)C5)c3Cl)c2Cl)ccc1CN1CC2(COC2)C1 [Embodiment 124, N-(3′-(5-((2-Oxa-6-azaspiro[3.3]heptan-6-yl)methyl)-6-methoxypyridin-2-yl)-2,2′-dichloro-[1,1′-biphenyl]-3-yl)-1,5-dimethyl-4,5,6,7-tetrahydro-1H-imidazo[4,5-c]pyridine-2-carboxamide] | 523 | 36 | 4 | 3.8 | 25 | 20 | –
7 | COc1nc(-c2cccc(-c3cccc(NC(=O)c4nc5c(n4C)CCN(C)C5)c3Cl)c2Cl)ccc1CN1CC2(C1)CN(C(C)=O)C2 [Embodiment 123, N-(3′-(5-((6-Acetyl-2,6-diazaspiro[3.3]heptan-2-yl)methyl)-6-methoxypyridin-2-yl)-2,2′-dichloro-[1,1′-biphenyl]-3-yl)-1,5-dimethyl-4,5,6,7-tetrahydro-1H-imidazo[4,5-c]pyridine-2-carboxamide] | 778 | 59 | 4 | 1.6 | 12.8 | 6.7 | –
8 | COc1nc(-c2cccc(-c3cccc(NC(=O)c4nc5c(n4C)CCN(C)C5)c3Cl)c2Cl)ccc1CN1CC2(CC(NC(C)=O)C2)C1 [Embodiment 234, N-(3′-(5-((6-Acetylamino-2-azaspiro[3.3]heptan-2-yl)methyl)-6-methoxypyridin-2-yl)-2,2′-dichloro-[1,1′-biphenyl]-3-yl)-1,5-dimethyl-4,5,6,7-tetrahydro-1H-imidazo[4,5-c]pyridine-2-carboxamide] | 273 | 25 | 2 | 2.5 | 20.8 | 14.3 | –
9 | COc1nc(-c2cccc(-c3cccc(NC(=O)c4nc5c(n4C)CCN(C)C5)c3Cl)c2Cl)ccc1CNC[C@H](C)O [Embodiment 127, (S)—N-(2,2′-Dichloro-3′-(5-(((2-hydroxypropyl)amino)methyl)-6-methoxypyridin-2-yl)-[1,1′-biphenyl]-3-yl)-1,5-dimethyl-4,5,6,7-tetrahydro-1H-imidazo[4,5-c]pyridine-2-carboxamide] | 743 | 37 | 6 | 4.6 | 69 | 47 | –

The next lines start with results.

Row | AUC(0-t) [1] [ng·h/mL] | Cmax [1] [ng/mL] | Tmax [1] [h] | IC50 (human PD-1/PD-L1 binding; [2]) [nM] | Structure (SMILES) | MRT inf [1] [h] | half-life [1] [h] | IC50 (human PD-1/PD-L1 binding) [nM]
10 | 887 | 116 | 2 | 3.8 | COc1nc(-c2cccc(-c3cccc(NC(=O)c4nc5c(n4C)CCN(C)C5)c3Cl)c2Cl)ccc1CN1CC(NC(C)=O)C1 [Embodiment 180, N-(3′-(5-((3-Acetylaminoazetidin-1-yl)methyl)-6-methoxypyridin-2-yl)-2,2′-dichloro-[1,1′-biphenyl]-3-yl)-1,5-dimethyl-4,5,6,7-tetrahydro-1H-imidazo[4,5-c]pyridine-2-carboxamide] | 12.9 | 9.5 | –
11 | 1630 | 132 | 6 | 4.2 | COc1nc(-c2cccc(-c3cccc(NC(=O)c4nc5c(n4C)CCN(C)C5)c3Cl)c2Cl)ccc1CN[C@H]1CCOC[C@@H]1O (relative stereo) [Embodiment 175, N-(2,2′-Dichloro-3′-(5-((((3,4-trans)-3-hydroxytetrahydro-2H-pyran-4-yl)amino)methyl)-6-methoxypyridin-2-yl)-[1,1′-biphenyl]-3-yl)-1,5-dimethyl-4,5,6,7-tetrahydro-1H-imidazo[4,5-c]pyridine-2-carboxamide] | – | – | –
12 | – | – | – | 3 | COc1nc(-c2cccc(-c3cccc(NC(=O)c4nc5c(n4C)CCN(C)C5)c3Cl)c2Cl)ccc1CNC(CO)CO [Embodiment 174, N-(2,2′-Dichloro-3′-(5-(((1,3-dihydroxypropan-2-yl)amino)methyl)-6-methoxypyridin-2-yl)-[1,1′-biphenyl]-3-yl)-1,5-dimethyl-4,5,6,7-tetrahydro-1H-imidazo[4,5-c]pyridine-2-carboxamide] | – | – | –
13 | – | – | – | 9 | COc1nc(-c2cccc(-c3cccc(NC(=O)c4nc5c(n4C)CCN(C)C5)c3Cl)c2Cl)ccc1CN1CC2(C1)CN(S(C)(=O)=O)C2 [Embodiment 192] | – | – | –
14 | 537 | 31 | 2 | 8.1 | COc1nc(-c2cccc(-c3cccc(NC(=O)c4nc5c(n4C)CCN(C)C5)c3Cl)c2Cl)ccc1CN1CC2(C1)CN(C(=O)C(C)C)C2 [Embodiment 186, N-(2,2′-Dichloro-3′-(5-((6-isobutyryl-2,6-diazaspiro[3.3]heptan-2-yl)methyl)-6-methoxypyridin-2-yl)-[1,1′-biphenyl]-3-yl)-1,5-dimethyl-4,5,6,7-tetrahydro-1H-imidazo[4,5-c]pyridine-2-carboxamide] | 22.5 | 15.2 | –
